In the experiment the test system is B6C3F1 mice, B16 melanoma ip, median survival T/C. Nature of the experiment: NCI In Vivo Anticancer Drug Screen. Data for tumor model B16 Melanoma (intraperitoneal) in B6C3F1 mice. As to conditions: endpoint: median survival time, higher = longer survival. In a few lines:
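Mice bearing transplanted tumor were dosed with compound or vehicle, and survival was recorded. Activity is expressed as the treated-group measurement (T) divided by the vehicle control measurement (C).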

Setting [1] is: dose: 6.25 mg/kg/injection, schedule: Q01DX009 (ip), vehicle: saline.
Where [2] appears, read: dose: 12.5 mg/kg/injection, schedule: Q01DX009 (ip), vehicle: saline.
Where [3] appears, read: dose: 25.0 mg/kg/injection, schedule: Q01DX009 (ip), vehicle: saline.
The mark [4] stands for this setting: dose: 50.0 mg/kg/injection, schedule: Q01DX009 (ip), vehicle: saline.
The mark [5] stands for this setting: dose: 3.12 mg/kg/injection, schedule: Q01DX009 (ip), vehicle: saline with Tween-80.
[6] abbreviates: dose: 6.25 mg/kg/injection, schedule: Q01DX009 (ip), vehicle: saline with Tween-80.
Setting [7] is: dose: 12.5 mg/kg/injection, schedule: Q01DX009 (ip), vehicle: saline with Tween-80.
Where [8] appears, read: dose: 25.0 mg/kg/injection, schedule: Q01DX009 (ip), vehicle: saline with Tween-80.
Setting [9] is: dose: 50.0 mg/kg/injection, schedule: Q01DX009 (ip), vehicle: saline with Tween-80.
The mark [10] stands for this setting: dose: 100.0 mg/kg/injection, schedule: Q01DX009 (ip), vehicle: saline with Tween-80.
Setting [11] is: dose: 200.0 mg/kg/injection, schedule: Q01DX009 (ip), vehicle: saline with Tween-80.
Setting [12] is: dose: 20.0 mg/kg/injection, schedule: Q01DX009 (ip), vehicle: saline with Tween-80.
[13] abbreviates: dose: 100.0 mg/kg/injection, schedule: Q01DX009 (ip), vehicle: saline.
Setting [14] is: dose: 200.0 mg/kg/injection, schedule: Q01DX009 (ip), vehicle: saline.
The mark [15] stands for this setting: dose: 400.0 mg/kg/injection, schedule: Q01DX009 (ip), vehicle: saline.
The mark [16] stands for this setting: dose: 12.5 mg/kg/injection, schedule: Q01DX009 (ip), vehicle: Klucel (hydroxypropylcellulose) (HPC).
The mark [17] stands for this setting: dose: 25.0 mg/kg/injection, schedule: Q01DX009 (ip), vehicle: Klucel (hydroxypropylcellulose) (HPC).

Where “and” joins values, the source holds several entries; their conditions need not be identical. Equal entries are not always repeated. Toxic doses and inconclusive results are not listed.

For the compound `Oc1ccccc1C=NCCC[N-]CCCN=Cc1ccccc1O.[Co]`, the T/C by setting is: (dose: 6.25 mg/kg/injection, schedule: Q01DX008 (ip), vehicle: saline) 97 % of control; under setting [1], 101 % of control; (dose: 12.5 mg/kg/injection, schedule: Q01DX008 (ip), vehicle: saline) 107 % of control; under setting [2], 107 % of control; (dose: 25.0 mg/kg/injection, schedule: Q01DX008 (ip), vehicle: saline) 96 % of control; under setting [3], 113 % of control. For the same compound, the T/C reads like this: (dose: 50.0 mg/kg/injection, schedule: Q01DX008 (ip), vehicle: saline) 86 % of control; under setting [4], 105 % of control; (dose: 100.0 mg/kg/injection, schedule: Q01DX008 (ip), vehicle: saline) 95 % of control.

On to `Nc1nc2c(ncn2C2OC(CO)C(O)C2N)c(=O)[nH]1` (configuration not stated), for which the T/C under setting [5] is 97 % of control; the T/C under setting [6] is 90 % of control; the T/C under setting [7] was 107 % of control; the T/C under setting [8] is 112 % of control; the T/C under setting [9] was 97 % of control; the T/C under setting [10] was 107 % of control. For the same compound, the T/C under setting [11] is 104 % of control.

On to `C[n+]1cccc(NC(=O)c2ccc(NC(=O)C34CCC(C(=O)Nc5ccc(C(=O)Nc6ccc[n+](C)c6)cc5)(CC3)CC4)cc2)c1`, for which the T/C is 114 % of control (dose: 2.5 mg/kg/injection, schedule: Q01DX009 (ip), vehicle: saline with Tween-80); 111 % of control and 117 % of control and 118 % of control (dose: 5.0 mg/kg/injection, schedule: Q01DX009 (ip), vehicle: saline with Tween-80); 119 % of control (dose: 10.0 mg/kg/injection, schedule: Q01DX009 (ip), vehicle: saline with Tween-80); 121 % of control and 99 % of control under setting [12].

As for `CNc1c(NC)n(C)c(=O)n(C)c1=O`, the T/C was 92 % of control under setting [13], 100 % of control under setting [14] and 96 % of control under setting [15].

Regarding `O=C(CCCCCCC(=O)ON1C(=O)CCC1=O)ON1C(=O)CCC1=O`, the T/C is, setting by setting: under setting [8], 99 % of control; under setting [9], 96 % of control; under setting [10], 103 % of control.

Regarding `[Cl][Pt+2][Cl].[NH-]c1cc(Cl)c(Cl)cc1[NH-]`, the T/C by setting is: under setting [12], 97 % of control and 107 % of control; (dose: 40.0 mg/kg/injection, schedule: Q01DX009 (ip), vehicle: saline with Tween-80) 110 % of control and 101 % of control; (dose: 80.0 mg/kg/injection, schedule: Q01DX009 (ip), vehicle: saline with Tween-80) 110 % of control and 122 % of control; (dose: 160.0 mg/kg/injection, schedule: Q01DX009 (ip), vehicle: saline with Tween-80) 111 % of control and 105 % of control; (dose: 320.0 mg/kg/injection, schedule: Q01DX009 (ip), vehicle: saline with Tween-80) 110 % of control and 106 % of control.

On to `Clc1ccc(CN2COc3c(ccc4cccnc34)C2)cc1Cl`, for which the T/C was 102 % of control under setting [7], 109 % of control under setting [8] and 92 % of control under setting [9].

For the compound `O=c1n(CC2CO2)c(=O)n(CC2CO2)n1CC1CO1` (configuration not stated), the T/C is, setting by setting: (dose: 3.0 mg/kg/injection, schedule: Q01DX009 (ip), vehicle: saline) 172 % of control; (dose: 6.0 mg/kg/injection, schedule: Q01DX009 (ip), vehicle: saline) 212 % of control; under setting [1], 183 % of control; (dose: 12.0 mg/kg/injection, schedule: Q01DX009 (ip), vehicle: saline) 300 % of control; under setting [2], 198 % of control.

In the case of `CCN(CC)c1ccc2[nH]c3c(C(N)=O)cc(=O)c(=O)c=3oc2c1`, the T/C was 96 % of control under setting [7] and 112 % of control under setting [8].

Regarding `C[Si](C)(C)O/C=C1/CCOC1=O`, the T/C under setting [16] was 104 % of control; the T/C under setting [17] was 93 % of control; the T/C (dose: 50.0 mg/kg/injection, schedule: Q01DX009 (ip), vehicle: Klucel (hydroxypropylcellulose) (HPC)) is 95 % of control; the T/C (dose: 100.0 mg/kg/injection, schedule: Q01DX009 (ip), vehicle: Klucel (hydroxypropylcellulose) (HPC)) is 95 % of control; the T/C (dose: 200.0 mg/kg/injection, schedule: Q01DX009 (ip), vehicle: Klucel (hydroxypropylcellulose) (HPC)) is 106 % of control.

In the case of `O=C(CCl)N1c2ccccc2Oc2cc3ccccc3cc21`, the T/C is, setting by setting: under setting [9], 111 % of control; under setting [10], 108 % of control; under setting [11], 97 % of control; under setting [14], 122 % of control and 95 % of control; (dose: 400.0 mg/kg/injection, schedule: Q01DX009 (ip), vehicle: saline with Tween-80) 92 % of control; under setting [15], 97 % of control and 100 % of control.

Take `COc1cccc(/C=C/[N+](=O)[O-])c1OC`: the T/C reads like this: (dose: 3.12 mg/kg/injection, schedule: Q01DX009 (ip), vehicle: Klucel (hydroxypropylcellulose) (HPC)) 100 % of control; (dose: 6.25 mg/kg/injection, schedule: Q01DX009 (ip), vehicle: Klucel (hydroxypropylcellulose) (HPC)) 98 % of control; under setting [16], 94 % of control; under setting [17], 96 % of control.

Consider `O=NNc1cnccn1`, for which the T/C (dose: 3.12 mg/kg/injection, schedule: Q01DX009 (ip), vehicle: water) was 120 % of control and 103 % of control and 106 % of control; the T/C (dose: 6.25 mg/kg/injection, schedule: Q01DX009 (ip), vehicle: water) was 109 % of control and 110 % of control and 114 % of control; the T/C (dose: 12.5 mg/kg/injection, schedule: Q01DX009 (ip), vehicle: water) is 113 % of control; the T/C (dose: 25.0 mg/kg/injection, schedule: Q01DX009 (ip), vehicle: water) was 155 % of control and 158 % of control and 169 % of control; the T/C (dose: 50.0 mg/kg/injection, schedule: Q01DX009 (ip), vehicle: water) is 96 % of control.

For the compound `C=CCOCC1CO1` (configuration not stated), the T/C reads like this: under setting [2], 98 % of control and 99 % of control; under setting [3], 111 % of control and 101 % of control; under setting [4], 92 % of control and 103 % of control; under setting [13], 111 % of control and 104 % of control; under setting [14], 111 % of control and 99 % of control.

With `C[PH+](C)C.C[PH+](C)C.[Au]`, the T/C is, setting by setting: (dose: 0.31 mg/kg/injection, schedule: Q01DX009 (ip), vehicle: Klucel (hydroxypropylcellulose) (HPC)) 115 % of control; (dose: 0.62 mg/kg/injection, schedule: Q01DX009 (ip), vehicle: Klucel (hydroxypropylcellulose) (HPC)) 117 % of control; (dose: 1.25 mg/kg/injection, schedule: Q01DX009 (ip), vehicle: Klucel (hydroxypropylcellulose) (HPC)) 114 % of control; (dose: 2.5 mg/kg/injection, schedule: Q01DX009 (ip), vehicle: Klucel (hydroxypropylcellulose) (HPC)) 112 % of control.

Take `C[Si](C)(C)O/C=C1\CCCCC1=O`: the T/C runs as follows: under setting [6], 105 % of control; under setting [7], 104 % of control; under setting [8], 113 % of control; under setting [9], 105 % of control; under setting [10], 110 % of control; under setting [11], 97 % of control.

With `Cc1cc(N(CC(C)Br)CC(C)Br)ccc1N=Nc1ccccc1C(=O)O` (configuration not stated), the T/C was 105 % of control (dose: 0.78 mg/kg/injection, schedule: Q01DX009 (ip), vehicle: saline); 110 % of control (dose: 1.56 mg/kg/injection, schedule: Q01DX009 (ip), vehicle: saline with Tween-80); 98 % of control (dose: 1.56 mg/kg/injection, schedule: Q01DX009 (ip), vehicle: saline); 164 % of control under setting [5]; 111 % of control (dose: 3.12 mg/kg/injection, schedule: Q01DX009 (ip), vehicle: saline); 108 % of control under setting [1].

Take `COc1ccc(C(=O)CC2CCCC(CC(=O)c3ccc(OC)cc3)N2C)cc1` (configuration not stated): the T/C is 103 % of control under setting [9] and 101 % of control under setting [10].

Regarding `Nc1nc(-c2ccccc2)c(N=O)c(=O)[nH]1`, the T/C by setting is: (dose: 14.0 mg/kg/injection, schedule: Q01DX009 (ip), vehicle: saline with Tween-80) 96 % of control; (dose: 28.0 mg/kg/injection, schedule: Q01DX009 (ip), vehicle: saline with Tween-80) 94 % of control; (dose: 56.0 mg/kg/injection, schedule: Q01DX009 (ip), vehicle: saline with Tween-80) 91 % of control; (dose: 112.0 mg/kg/injection, schedule: Q01DX009 (ip), vehicle: saline with Tween-80) 101 % of control.

On to `NC(N)=O`, for which the T/C is 99 % of control under setting [4], 100 % of control under setting [13], 106 % of control under setting [14] and 95 % of control under setting [15].
